Measured values as given in ChEMBL document CHEMBL4334550, “Toward Orally Absorbed Prodrugs of the Antibiotic Aztreonam. Design of Novel Prodrugs of Sulfate Containing Drugs. Part 2” (ACS Med Chem Lett, 2020).

Experiments:
Liver carboxylesterase 1 [1] = molecular target: T1, Liver carboxylesterase 1 (Homo sapiens, UniProt P23141); assay: Prodrug conversion assessed as CES1 (unknown origin) mediated aztreonam release in 2.5% acetonitrile in 0.05M citrate buffer at 0.5 mg/ml at pH 4.7 at 37degC after 2 mins in presence of 150 units/ml of CES1 enzyme by HPLC analysis; assay type: ADME; conditions: pH 4.7, 2 min
T1 sequence (P23141 whole entry): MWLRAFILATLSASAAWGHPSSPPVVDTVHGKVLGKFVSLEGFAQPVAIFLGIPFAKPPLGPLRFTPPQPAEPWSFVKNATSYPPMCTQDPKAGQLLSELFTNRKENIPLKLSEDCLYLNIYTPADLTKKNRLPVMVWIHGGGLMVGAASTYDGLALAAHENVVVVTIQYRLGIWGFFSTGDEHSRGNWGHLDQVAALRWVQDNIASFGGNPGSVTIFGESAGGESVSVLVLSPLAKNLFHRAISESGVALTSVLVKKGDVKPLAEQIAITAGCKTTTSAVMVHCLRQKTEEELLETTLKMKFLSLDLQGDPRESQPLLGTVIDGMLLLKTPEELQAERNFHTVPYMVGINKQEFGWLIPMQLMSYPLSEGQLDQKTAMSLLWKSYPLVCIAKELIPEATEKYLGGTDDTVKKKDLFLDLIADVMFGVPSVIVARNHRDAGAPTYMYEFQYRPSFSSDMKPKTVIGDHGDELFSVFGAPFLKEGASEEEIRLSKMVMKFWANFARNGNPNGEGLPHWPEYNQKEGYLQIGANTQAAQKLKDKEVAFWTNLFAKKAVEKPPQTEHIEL

Liver carboxylesterase 1 [2] = molecular target: T1, Liver carboxylesterase 1; assay: Prodrug conversion assessed as CES1 (unknown origin) mediated aztreonam release in 2.5% acetonitrile in 0.05M citrate buffer at 0.5 mg/ml at pH 4.7 at 37degC after 5 mins in presence of 150 units/ml of CES1 enzyme by HPLC analysis; assay type: ADME; conditions: pH 4.7, 5 min
Liver carboxylesterase 1 [3] = molecular target: T1, Liver carboxylesterase 1; assay: Prodrug conversion assessed as CES1 (unknown origin) mediated aztreonam release in 2.5% acetonitrile in 0.05M citrate buffer at 0.5 mg/ml at pH 4.7 at 37degC after 10 mins in presence of 150 units/ml of CES1 enzyme by HPLC analysis; assay type: ADME; conditions: pH 4.7, 10 min
Liver carboxylesterase 1 [4] = molecular target: T1, Liver carboxylesterase 1; assay: Prodrug conversion assessed as CES1 (unknown origin) mediated aztreonam release in 2.5% acetonitrile in 0.05M citrate buffer at 0.5 mg/ml at pH 4.7 at 37degC after 20 mins in presence of 150 units/ml of CES1 enzyme by HPLC analysis; assay type: ADME; conditions: pH 4.7, 20 min
Liver carboxylesterase 1 [5] = molecular target: T1, Liver carboxylesterase 1; assay: Prodrug conversion assessed as CES1 (unknown origin) mediated aztreonam release in 2.5% acetonitrile in 0.05M citrate buffer at 0.5 mg/ml at pH 4.7 at 37degC after 30 mins in presence of 150 units/ml of CES1 enzyme by HPLC analysis; assay type: ADME; conditions: pH 4.7, 0.5 h
Liver carboxylesterase 1 [6] = molecular target: T1, Liver carboxylesterase 1; assay: Prodrug conversion assessed as CES1 (unknown origin) mediated aztreonam release in 2.5% acetonitrile in 0.05M citrate buffer at 0.5 mg/ml at pH 4.7 at 37degC measured immediately in presence of 150 units/ml of CES1 enzyme by HPLC analysis; assay type: ADME; conditions: BLD = below limit of detection
Liver carboxylesterase 1 [7] = molecular target: T1, Liver carboxylesterase 1; assay: Prodrug conversion assessed as CES1 (unknown origin) mediated aztreonam and beta-lactam ring-opened prodrug intermediate release in 2.5% acetonitrile in 0.05M citrate buffer at 0.5 mg/ml at pH 4.7 at 37degC in presence of CES1 at lower concentration by HPLC analysis; assay type: ADME
[8] = Stability of the compound in 2.5% acetonitrile in 0.05M citrate buffer assessed as aztreonam and beta-lactam ring-opened prodrug intermediate release at 0.5 mg/ml at pH 4.7 at 37degC by HPLC analysis; assay type: physicochemical
[9] = Oral bioavailability in human at 500 mg administered as solution measured 16 hrs post dosing; assay type: ADME, organism-based; conditions: in vivo
[10] = Oral bioavailability in human at 500 mg administered twice as 250 mg tablet formulation measured 16 hrs post dose; assay type: ADME, organism-based; conditions: in vivo
Liver carboxylesterase 1 [11] = molecular target: T1, Liver carboxylesterase 1; assay: Prodrug conversion assessed as CES1 (unknown origin) mediated aztreonam release in 2.5% acetonitrile in 0.05M citrate buffer at 0.5 mg/ml at pH 4.7 at 37degC after 1 min in presence of 150 units/ml of CES1 enzyme by HPLC analysis; assay type: ADME; conditions: pH 4.7, 1 min, BLD = below limit of detection

CCOC(=O)CCC(C)(C)COS(=O)(=O)N1C(=O)[C@@H](NC(=O)/C(=N\OC(C)(C)C(=O)O)c2csc(N)n2)[C@@H]1C.O=C(O)C(F)(F)F
Drug metabolism (Liver carboxylesterase 1 [1]): 45%
Drug metabolism (Liver carboxylesterase 1 [2]): 76%
Drug metabolism (Liver carboxylesterase 1 [3]): 86%
Drug metabolism (Liver carboxylesterase 1 [4]): 90%
Drug metabolism (Liver carboxylesterase 1 [5]): 90%
Drug metabolism (Liver carboxylesterase 1 [6]): Bld
Drug metabolism (Liver carboxylesterase 1 [7]): Metabolite_Detected
Stability [8]: Unstable

C[C@H]1[C@H](NC(=O)/C(=N\OC(C)(C)C(=O)O)c2csc(N)n2)C(=O)N1S(=O)(=O)O [AZTREONAM]
bioavailability [9]: < 1%
bioavailability [10]: < 1%

CCOC(=O)C(C)(C)COS(=O)(=O)N1C(=O)[C@@H](NC(=O)/C(=N\OC(C)(C)C(=O)O)c2csc(N)n2)[C@@H]1C.O=C(O)C(F)(F)F
Drug metabolism (Liver carboxylesterase 1 [11]): Bld
Drug metabolism (Liver carboxylesterase 1 [1]): 4%
Drug metabolism (Liver carboxylesterase 1 [2]): 8%
Drug metabolism (Liver carboxylesterase 1 [3]): 14%
Drug metabolism (Liver carboxylesterase 1 [4]): 23%
Drug metabolism (Liver carboxylesterase 1 [5]): 28%
Drug metabolism (Liver carboxylesterase 1 [6]): Bld
Drug metabolism (Liver carboxylesterase 1 [7]): Metabolite_Detected
Stability [8]: Unstable

C[C@H]1[C@H](NC(=O)/C(=N\OC(C)(C)C(=O)O)c2csc(N)n2)C(=O)N1S(=O)(=O)OCC(C)(C)CCOC(=O)C(C)(C)C.O=C(O)C(F)(F)F
Drug metabolism (Liver carboxylesterase 1 [1]): > 95%
Drug metabolism (Liver carboxylesterase 1 [2]): > 95%
Drug metabolism (Liver carboxylesterase 1 [3]): > 95%
Drug metabolism (Liver carboxylesterase 1 [4]): > 95%
Drug metabolism (Liver carboxylesterase 1 [5]): > 95%
Drug metabolism (Liver carboxylesterase 1 [6]): Bld
Drug metabolism (Liver carboxylesterase 1 [7]): Metabolite_Detected
Stability [8]: Unstable
